Assays:
CAIX [1] = biological target: T1, CAIX (Homo sapiens, UniProt Q16790); experiment: Stopped-flow CO2 hydration, CAIX activity before and after dialysis; assay type: biochemical; conditions: for CAIX catalytic activity after 32 hours of dialysis: […] CAIX incubated 2 h with 15 μM AV19-37 or 100 μM AV19-36, dialyzed in Tris buffer pH 7
Protocol: A—CAIX incubated for 2 hours with compounds and the CO2 hydration was measured. B—CAIX was incubated for 2 hours with the compound and then the complex was dialyzed for 32 hours in Tris buffer (pH 7.0). Black curves represent CAIX catalyzed CO2 hydration reaction. Grey curves are spontaneous CO2 hydration without the CA enzyme.
CO2 hydration velocities were measured by recording absorbance of phenol red (final concentration 50 μM) at 557 nm by using Applied Photophysics SX.18 MV-R stopped-flow spectrometer.

CAIII = CAIII (Homo sapiens, UniProt P07451); experiment: Mass spectrometry (Q-TOF) of covalent modification of CAIII; assay type: binding; conditions: CAIII in the presence of ligand
CAIX [2] = biological target: T1, CAIX; experiment: Isothermal titration calorimetry (ITC) binding to CAIX; conditions: pH 7.0, TRIS chloride buffer, 37° C., FIG. 1D
Protocol: A—Raw data of CAIX unfolding in the presence of different compound concentrations. B—dependence of CAIX melting temperature Tm on ligand concentration. […] C—raw ITC curve at pH 7.0, TRIS chloride buffer, at 37° C. D—Integrated ITC curve.

Chain of CAIII (P07451 whole entry): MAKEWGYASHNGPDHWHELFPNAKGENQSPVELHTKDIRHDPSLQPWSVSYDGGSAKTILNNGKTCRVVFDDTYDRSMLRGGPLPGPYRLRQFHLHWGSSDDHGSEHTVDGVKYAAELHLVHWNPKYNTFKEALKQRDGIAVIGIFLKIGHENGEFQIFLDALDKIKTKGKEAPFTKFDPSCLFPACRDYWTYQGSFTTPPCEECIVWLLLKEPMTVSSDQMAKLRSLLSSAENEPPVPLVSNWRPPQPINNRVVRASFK

SMILES	CAIX catalytic activity after 32 hours of dialysis (CAIX [1])	covalent modification by MS (CAIII)	compound binding stoichiometry (CAIX [2])	CAIX catalytic activity after 2 hours of incubation with compound (CAIX [1]; […] CAIX, 15 μM compound, CO2 hydration, 25° C., pH 7.5)
CC(=O)OCCSc1c(F)c(F)c(S(N)(=O)=O)c(F)c1F [AV19-36, 2-((2,3,5,6-tetrafluoro-4-sulfamoylphenyl)thio)ethyl acetate]	partially restored its catalytic activity	–	–	–
CC(=O)OCCS(=O)(=O)c1c(F)c(F)c(S(N)(=O)=O)c(F)c1NC1CCCCCCC1 [AV19-37, 2-((2-(cyclooctylamino)-3,5,6-trifluoro-4-sulfamoylphenyl)sulfonyl)ethyl acetate]	not restored	did not show a covalent modification	~1	lost its catalytic activity

Source: patent US20250066291A1, “TARGETED COVALENT INHIBITORS FOR CARBONIC ANHYDRASES” (VILNIUS UNIVERSITY, priority 2023, published 2025)
